Columns and labels:
Test in all cases: microbe, parasite or virus in culture
Assay type in all cases: functional
Escherichia coli [1] = conditions: DSM 8579, time 48 hrs
Description: Antibiofilm activity against Escherichia coli DSM 8579 assessed as inhibition of biofilm formation at 40 ug/ml measured after 48 hrs by crystal violet staining based assay relative to control

Pseudomonas aeruginosa [2] = conditions: ATCC 50071, time 48 hrs
Description: Antibiofilm activity against Pseudomonas aeruginosa ATCC 50071 assessed as inhibition of bacterial metabolism within the biofilm at 8 ug/ml measured after 48 hrs by MTT assay relative to control

Listeria monocytogenes [3] = conditions: ATCC 7644, time 48 hrs
Description: Antibiofilm activity against Listeria monocytogenes ATCC 7644 assessed as inhibition of biofilm formation at 8 ug/ml measured after 48 hrs by crystal violet staining based assay relative to control

Pseudomonas aeruginosa [4] = conditions: ATCC 50071, time 48 hrs; remark: listed apart in the source
Description: Antibiofilm activity against Pseudomonas aeruginosa ATCC 50071 assessed as inhibition of biofilm formation at 8 ug/ml measured after 48 hrs by crystal violet staining based assay relative to control

Staphylococcus aureus [5] = conditions: ATCC 25923, time 48 hrs
Description: Antibiofilm activity against Staphylococcus aureus ATCC 25923 assessed as inhibition of biofilm formation at 4 ug/ml measured after 48 hrs by crystal violet staining based assay relative to control

Pseudomonas aeruginosa [6] = conditions: ATCC 50071, time 48 hrs; remark: listed apart in the source
Description: Antibiofilm activity against Pseudomonas aeruginosa ATCC 50071 assessed as inhibition of bacterial metabolism within the biofilm at 4 ug/ml measured after 48 hrs by MTT assay relative to control

Pseudomonas aeruginosa [7] = conditions: ATCC 50071, time 48 hrs; remark: listed apart in the source
Description: Antibiofilm activity against Pseudomonas aeruginosa ATCC 50071 assessed as inhibition of biofilm formation at 4 ug/ml measured after 48 hrs by crystal violet staining based assay relative to control

Listeria monocytogenes [8] = conditions: ATCC 7644, time 48 hrs; remark: listed apart in the source
Description: Antibiofilm activity against Listeria monocytogenes ATCC 7644 assessed as inhibition of bacterial metabolism within the biofilm at 4 ug/ml measured after 48 hrs by MTT assay relative to control

Escherichia coli [9] = conditions: DSM 8579, time 48 hrs; remark: listed apart in the source
Description: Antibiofilm activity against Escherichia coli DSM 8579 assessed as inhibition of bacterial metabolism within the biofilm at 80 ug/ml measured after 48 hrs by MTT assay relative to control

Staphylococcus aureus [10] = conditions: ATCC 25923, time 48 hrs; remark: listed apart in the source
Description: Antibiofilm activity against Staphylococcus aureus ATCC 25923 assessed as inhibition of biofilm formation at 8 ug/ml measured after 48 hrs by crystal violet staining based assay relative to control

Listeria monocytogenes [11] = conditions: ATCC 7644, time 48 hrs; remark: listed apart in the source
Description: Antibiofilm activity against Listeria monocytogenes ATCC 7644 assessed as inhibition of bacterial metabolism within the biofilm at 8 ug/ml measured after 48 hrs by MTT assay relative to control

Staphylococcus aureus [12] = conditions: ATCC 25923, time 48 hrs; remark: listed apart in the source
Description: Antibiofilm activity against Staphylococcus aureus ATCC 25923 assessed as inhibition of bacterial metabolism within the biofilm at 4 ug/ml measured after 48 hrs by MTT assay relative to control

Staphylococcus aureus [13] = conditions: ATCC 25923, time 48 hrs; remark: listed apart in the source
Description: Antibiofilm activity against Staphylococcus aureus ATCC 25923 assessed as inhibition of bacterial metabolism within the biofilm at 8 ug/ml measured after 48 hrs by MTT assay relative to control

Listeria monocytogenes [14] = conditions: ATCC 7644, time 48 hrs; remark: listed apart in the source
Description: Antibiofilm activity against Listeria monocytogenes ATCC 7644 assessed as inhibition of biofilm formation at 4 ug/ml measured after 48 hrs by crystal violet staining based assay relative to control

Escherichia coli [15] = conditions: DSM 8579, time 48 hrs; remark: listed apart in the source
Description: Antibiofilm activity against Escherichia coli DSM 8579 assessed as inhibition of bacterial metabolism within the biofilm at 40 ug/ml measured after 48 hrs by MTT assay relative to control

Escherichia coli [16] = conditions: DSM 8579, time 48 hrs; remark: listed apart in the source
Description: Antibiofilm activity against Escherichia coli DSM 8579 assessed as inhibition of biofilm formation at 80 ug/ml measured after 48 hrs by crystal violet staining based assay relative to control

| Structure (SMILES) | inhibition at 40 µg/mL (Escherichia coli [1]) [%] | inhibition at 8 µg/mL (Pseudomonas aeruginosa [2]) [%] | inhibition at 8 µg/mL (Listeria monocytogenes [3]) [%] | inhibition at 8 µg/mL (Pseudomonas aeruginosa [4]) [%] | inhibition at 4 µg/mL (Staphylococcus aureus [5]) [%] | inhibition at 4 µg/mL (Pseudomonas aeruginosa [6]) [%] | inhibition at 4 µg/mL (Pseudomonas aeruginosa [7]) [%] | inhibition at 4 µg/mL (Listeria monocytogenes [8]) [%] | inhibition at 80 µg/mL (Escherichia coli [9]) [%] | inhibition at 8 µg/mL (Staphylococcus aureus [10]) [%] | inhibition at 8 µg/mL (Listeria monocytogenes [11]) [%] | inhibition at 4 µg/mL (Staphylococcus aureus [12]) [%] | inhibition at 8 µg/mL (Staphylococcus aureus [13]) [%] | inhibition at 4 µg/mL (Listeria monocytogenes [14]) [%] | inhibition at 40 µg/mL (Escherichia coli [15]) [%] | inhibition at 80 µg/mL (Escherichia coli [16]) [%] |
| --- | --- | --- | --- | --- | --- | --- | --- | --- | --- | --- | --- | --- | --- | --- | --- | --- |
| CO[C@H]1c2cc(C(C)C)c(O)c(O)c2[C@@]23CCCC(C)(C)[C@@H]2[C@@H]1OC3=O | 32.9 | 30.9 | 23.8 | 84.7 | 23.5 | 3.1 | 14.7 | 0 | 27.3 | 63.3 | 29.8 | 9.4 | 22.9 | 16.2 | 0 | 47.4 |
| CC1(C)C[C@H]2[C@H]1CC[C@@]1(C)C[C@@]2(O)CC[C@@H]1O | 0 | 4 | 38.7 | 4 | 0 | 0 | 0 | 0 | 18.2 | 0 | 23.9 | 0 | 0 | 14.8 | 0 | 23.9 |
| COc1c(C(C)C)cc2c(c1O)[C@@]1(C(=O)O)CCCC(C)(C)[C@@H]1CC2 | 3.2 | 71.6 | 81 | 81.2 | 31.9 | 43.2 | 68.6 | 4 | 96.1 | 72 | 6.7 | 0 | 0 | 74.1 | 67.2 | 66.3 |
| CC1(C)C[C@H](O)[C@]23CC[C@@H](O)[C@](C)(CC[C@@H]12)C3 | 3.2 | 40 | 17.8 | 40 | 0 | 39.8 | 39.8 | 8.7 | 37.5 | 0 | 17.8 | 0 | 0 | 8.7 | 1.6 | 45.4 |
| CC(=O)O[C@H]1CC(C)(C)[C@@H]2CC[C@]3(C)C[C@]12CC[C@H]3O | 0 | 45.9 | 23.3 | 45.9 | 3.2 | 30.4 | 15.2 | 20.6 | 42 | 16.4 | 29.4 | 0 | 4.7 | 14.6 | 0 | 29.6 |
| C=C(C)[C@@H]1CC[C@]2(C(=O)O)CC[C@]3(C)[C@H](CC[C@@H]4[C@@]5(C)CC[C@H](O)C(C)(C)[C@@H]5CC[C@]43C)[C@@H]12 [BETULINIC ACID] | 33.4 | 72.2 | 80.4 | 63.4 | 30.7 | 31.9 | 38 | 12.7 | 22.6 | 75.2 | 18.7 | 0 | 14 | 75.6 | 15 | 54.4 |
| COc1cc2oc(-c3ccc(O)cc3)cc(=O)c2c(O)c1OC [CIRSIMARITIN] | 37.7 | 40.2 | 65.2 | 83.7 | 0 | 0 | 47.9 | 26.9 | 50 | 6.6 | 39 | 0 | 52.6 | 54 | 44.2 | 65.3 |
| CC(C)c1cc2c(c(O)c1O)C1=C(CC2)C(C)(C)CCC1=O [SAGEONE] | 13.7 | 0 | 0.9 | 0 | 0 | 0 | 0 | 0 | 24.6 | 0 | 0.9 | 0 | 0 | 0 | 6.8 | 45.5 |
| COc1c(C(C)C)cc2c(c1O)[C@]1(C(=O)O)CCCC(C)(C)[C@@H]1CC2 (relative stereo) | 92.6 | 46.8 | 17.8 | 46.8 | 0 | 27.2 | 27.2 | 6.5 | 89.1 | 8 | 17.8 | 0 | 8 | 6.5 | 46.3 | 92.8 |
| C=C1CC/C=C(/C)[C@H](O)C[C@@H]2[C@@H]1CC2(C)CO (some centres undefined) | 27.4 | 43.1 | 51.1 | 34.3 | 0 | 27.4 | 18.2 | 22.4 | 45.4 | 34.9 | 36.8 | 27.7 | 31.1 | 13.7 | 13.9 | 43.1 |
| C=CC(C)(O)C/C=C/C(C)(C)O (centres undefined) | 30.4 | 71.3 | 85 | 84.7 | 13.3 | 68.1 | 75.9 | 9.1 | 64 | 40.7 | 38.1 | 42.2 | 44.4 | 78 | 52 | 78.6 |
| CC1(C)C[C@H]2[C@H]1CC[C@]1(C)C[C@]2(O)CC[C@@H]1O | 24.3 | 24.6 | 25.7 | 53.6 | 0 | 0 | 42.4 | 31.1 | 57.8 | 17.9 | 42.2 | 33.3 | 48.6 | 8.7 | 38.3 | 71.9 |
| CC1(C)C[C@@H](O)C[C@](C)(O)/C1=C\C(=O)O | 28.6 | 35.7 | 10.2 | 55.5 | 12.6 | 29.2 | 0 | 13.1 | 38.6 | 31.5 | 33.3 | 44.7 | 49.3 | 0 | 14.2 | 50.3 |
| CC(C)c1cc2c(cc1O)[C@@]1(C)CCCC(C)(C)[C@@H]1CC2 [FERRUGINOL] | 19.2 | 45.2 | 60.9 | 53.2 | 38.5 | 20.3 | 52.2 | 0 | 24.7 | 44.6 | 14.2 | 0 | 27.9 | 35.6 | 9.1 | 37.5 |

Source: ChEMBL document CHEMBL4813932, “Terpenoid Constituents of Perovskia artemisioides Aerial Parts with Inhibitory Effects on Bacterial Biofilm Growth” (2021)
